Results: ChEMBL document CHEMBL1201862, “PubChem BioAssay data set” (2004)
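Growth conditions: 96-well plates. Treatment: test compound, 48 hours, 5 concentrations. Analysis: linear interpolation between bracketing concentrations; unreached endpoints set to highest concentration. GI50 is the concentration that inhibits growth by half.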 Activity calls are given as the source filed them. No stated cut-off is given here; in the data, active = GI50 up to about 1.1 µM and inactive = higher.

Experiments:
Test in all cases: NCI-60 cell line screen, 48 h
NCI-H23 = system: NCI-H23
RXF 393 = system: RXF 393
HOP-62 = system: HOP-62
MDA-MB-231 = system: MDA-MB-231
OVCAR-5 = system: OVCAR-5
SW-620 = system: SW-620
T47D = system: T47D
SF-539 = system: SF-539
SNB-19 = system: SNB-19
HCT-116 = system: HCT-116
SNB-75 = system: SNB-75
SF-268 = system: SF-268
CCRF-CEM = system: CCRF-CEM
MDA-N = system: MDA-N
SK-MEL-5 = system: SK-MEL-5
SK-OV-3 = system: SK-OV-3
IGROV-1 = system: IGROV-1
OVCAR-8 = system: OVCAR-8
U-251 = system: U-251

Compound	GI50 (NCI-H23)	GI50 (RXF 393)	GI50 (HOP-62)	GI50 (MDA-MB-231)	GI50 (OVCAR-5)	GI50 (SW-620)	GI50 (T47D)	GI50 (SF-539)	GI50 (SNB-19)	GI50 (HCT-116)	GI50 (SNB-75)	GI50 (SF-268)	GI50 (CCRF-CEM)	GI50 (MDA-N)	GI50 (SK-MEL-5)	GI50 (SK-OV-3)	GI50 (IGROV-1)	GI50 (OVCAR-8)	GI50 (U-251)
O=c1c2ccccc2n2c(S)nnc2n1-c1ccccc1	> 100 µM (inactive)	> 100 µM (inactive)	> 100 µM (inactive)	> 100 µM (inactive)	> 100 µM (inactive)	> 100 µM (inactive)	> 100 µM (inactive)	> 100 µM (inactive)	> 100 µM (inactive)	> 100 µM (inactive)	21.1 µM (inactive)	> 100 µM (inactive)	> 100 µM (inactive)	> 100 µM (inactive)	> 100 µM (inactive)	> 100 µM (inactive)	> 100 µM (inactive)	> 100 µM (inactive)	> 100 µM (inactive)
CC1=NN(C(=O)CC(=O)Nc2cccc(C)c2)C(=O)C1/N=N\c1ccc(S(=O)(=O)c2ccc(/N=N/C3C(=O)N(C(=O)CC(=O)Nc4cccc(C)c4)N=C3C)cc2)cc1 (stereo not given)	> 100 µM (inactive)	> 100 µM (inactive)	> 100 µM (inactive)	> 100 µM (inactive)	> 100 µM (inactive)	> 100 µM (inactive)	> 100 µM (inactive)	> 100 µM (inactive)	> 100 µM (inactive)	> 100 µM (inactive)	> 100 µM (inactive)	> 100 µM (inactive)	> 100 µM (inactive)	> 100 µM (inactive)	> 100 µM (inactive)	> 100 µM (inactive)	> 100 µM (inactive)	> 100 µM (inactive)	> 100 µM (inactive)
CC(=O)OCC1OC(O[C@@H]2C[C@H]3C(C)(C)[C@H](OC(C)=O)CC[C@]3(C)[C@H]3CC[C@@]45C[C@H](O)C[C@H](C)[C@@H]4CC=C5[C@@]32C)C(O)C(O)C1O (stereo not given in full)	4.56 µM (inactive)	2.11 µM (inactive)	9.53 µM (inactive)	2.39 µM (inactive)	2.18 µM (inactive)	4.18 µM (inactive)	3.43 µM (inactive)	6.59 µM (inactive)	4.02 µM (inactive)	2.08 µM (inactive)	3.16 µM (inactive)	4.01 µM (inactive)	2.81 µM (inactive)	3.61 µM (inactive)	3.24 µM (inactive)	9.12 µM (inactive)	2.71 µM (inactive)	4.83 µM (inactive)	3.04 µM (inactive)
COc1ccc(C(C)NNC(=O)c2ccncc2)c(OC)c1 (stereo not given)	> 100 µM (inactive)	> 100 µM (inactive)	> 100 µM (inactive)	> 100 µM (inactive)	> 100 µM (inactive)	> 100 µM (inactive)	> 100 µM (inactive)	> 100 µM (inactive)	> 100 µM (inactive)	> 100 µM (inactive)	> 100 µM (inactive)	> 100 µM (inactive)	> 100 µM (inactive)	> 100 µM (inactive)	> 100 µM (inactive)	> 100 µM (inactive)	> 100 µM (inactive)	> 100 µM (inactive)	> 100 µM (inactive)
C1=CC2C=CC(C=C1)P2c1ccccc1 (stereo not given)	> 100 µM (inactive)	> 100 µM (inactive)	> 100 µM (inactive)	> 100 µM (inactive)	> 100 µM (inactive)	> 100 µM (inactive)	> 100 µM (inactive)	> 100 µM (inactive)	> 100 µM (inactive)	> 100 µM (inactive)	> 100 µM (inactive)	> 100 µM (inactive)	> 100 µM (inactive)	> 100 µM (inactive)	> 100 µM (inactive)	> 100 µM (inactive)	> 100 µM (inactive)	> 100 µM (inactive)	> 100 µM (inactive)
O=C1C(N2CCOCC2)=C(Cl)C(=O)c2ncccc21	1.6 µM (inactive)	1.55 µM (inactive)	> 10 µM (inactive)	2.49 µM (inactive)	> 10 µM (inactive)	1.87 µM (inactive)	1.99 µM (inactive)	4.89 µM (inactive)	> 10 µM (inactive)	1.71 µM (inactive)	> 10 µM (inactive)	2.9 µM (inactive)	0.524 µM (active)	1.97 µM (inactive)	1.82 µM (inactive)	> 10 µM (inactive)	> 8.53 µM (inactive)	2.61 µM (inactive)	5.71 µM (inactive)
O=C(C/N=C(\CN(c1ccccc1)c1ccccc1)Oc1c(Cl)cc(Cl)cc1Cl)n1cnc2ccccc21	> 100 µM (inactive)	< 0.01 µM (active)	> 100 µM (inactive)	74 µM (inactive)	28 µM (inactive)	81.7 µM (inactive)	33.3 µM (inactive)	> 100 µM (inactive)	> 100 µM (inactive)	34 µM (inactive)	> 100 µM (inactive)	> 100 µM (inactive)	33.8 µM (inactive)	59.8 µM (inactive)	76 µM (inactive)	> 100 µM (inactive)	39.6 µM (inactive)	35.3 µM (inactive)	82.6 µM (inactive)
COc1cc2nc3c(=C(C#N)C#N)c4ccccc4n3c(=O)c2cc1OC	> 100 µM (inactive)	> 100 µM (inactive)	> 100 µM (inactive)	> 100 µM (inactive)	> 100 µM (inactive)	> 100 µM (inactive)	> 100 µM (inactive)	> 100 µM (inactive)	> 100 µM (inactive)	> 100 µM (inactive)	41.6 µM (inactive)	75.7 µM (inactive)	32.4 µM (inactive)	> 100 µM (inactive)	> 100 µM (inactive)	> 100 µM (inactive)	> 100 µM (inactive)	> 100 µM (inactive)	> 100 µM (inactive)
CC1(C)OC[C@@H](/C=C\CCO[Si](c2ccccc2)(c2ccccc2)C(C)(C)C)N1C(=O)c1ccccc1	4.61 µM (inactive)	6.84 µM (inactive)	25.4 µM (inactive)	10.9 µM (inactive)	16.3 µM (inactive)	14.5 µM (inactive)	4.06 µM (inactive)	18.3 µM (inactive)	17.9 µM (inactive)	3.41 µM (inactive)	> 100 µM (inactive)	13.9 µM (inactive)	6.21 µM (inactive)	15.8 µM (inactive)	2.51 µM (inactive)	48.2 µM (inactive)	28.6 µM (inactive)	15.8 µM (inactive)	12.7 µM (inactive)
OC[C@H]1N[C@H](CO)[C@@H](O)[C@H]1O	> 100 µM (inactive)	> 100 µM (inactive)	> 100 µM (inactive)	> 100 µM (inactive)	> 100 µM (inactive)	> 100 µM (inactive)	> 100 µM (inactive)	> 100 µM (inactive)	> 100 µM (inactive)	> 100 µM (inactive)	> 100 µM (inactive)	> 100 µM (inactive)	> 100 µM (inactive)	> 10 µM (inactive)	> 100 µM (inactive)	> 100 µM (inactive)	> 100 µM (inactive)	> 100 µM (inactive)	> 100 µM (inactive)
